Values after ≈ are worked out from the molar mass of the structure shown.

The text below walks through data of US20190231844A1, “ORAL APPLICATION OF THIOPEPTCIN” (NANJING BIOTICA PHARMACEUTICAL COMPANY, priority 2015, published 2019).

The test system of data set [1] is Reduced-sensitivity strain to Metronidazole C. difficile LCN 0048. Nature of the data set: MIC by broth dilution method (CLSI M11-A7). It is filed as cell-based. To be noted: Clostridioides difficile.
Data set [2] has as its system clinically isolated strain LCN 001. Nature of the data set: MIC by broth dilution method (CLSI M11-A7). Format: cell-based. The note with it: Clostridioides difficile, LCN001, read-out: Sensitivity of C. difficile (MIC).
Data set [3] is described as follows: Pharmacokinetics of thiopeptcin after oral (intragastric) administration, plasma by LC-MS/MS. Format: in vivo. To be noted: after intragastric administration in rats, all doses and time points. Here is the method: 30 μl of blood or urine sample was added into 90 μl of methanol containing 5 ng/ml verapamil. After vortexing for 3 min and centrifuging at 14,000 rpm for 5 min, 80 μl of supernatant was taken for LC-MS/MS analysis.
Conditions for LC were as follows: • Column: Waters Symmetry 300 C18 3.5 μm 2.1*100 mm; • Mobile phase A: 10 mM ammonium acetate+0.02% aqueous ammonia solution; mobile phase B: methanol; • Duration of analysis: 5.2 min; injection volume: 5 μL; column temperature: 25° C.; gradient elution:
Conditions for MS/MS analysis were as follows: • Mass Spectrometer: Positive Ion Mode (Agilent 6460B) • Detection of ion pairs: Thiopeptcin: 1437.3-172.0, fragment=135, CE=22; • Verapamil (internal standard): 455.2→165.1, fragment=135, CE=25; • Mass spectrometry parameters: gas temp at 350 ° C.; gas flow at 10 L/min; nebulizer of 40 psi; sheath gas flow at 10 L/min and sheath gas heater at 400° C.
Preparation of thiopeptcin: Certain amount of thiopeptcin was dissolved in a mixed solvent of pH 5.0 containing 10% PEG400, 1% Tween 80 and 5 mg/ml citric acid. The solution was shaken to be clear for intragastric administration.
Male rats were divided into 4 groups with high, medium, and low doses according to experimental purposes. The high dose group was 50 mg/kg, the middle dose group was 25 mg/kg, the low-1 dose group was 5 mg/kg and the low-2 dose group was 1 mg/kg. […]

The test system of data set [4] is Clindamycin-resistant strain C. difficile LCN 0027. Nature of the data set: MIC by broth dilution method (CLSI M11-A7). Format: cell-based. The note with it: Clostridioides difficile, read-out: Sensitivity of C. difficile (MIC).
The subject of data set [5] is Erythrocin-resistant strain C. difficile LCN 0081. The data set is described as follows: MIC by broth dilution method (CLSI M11-A7). To be noted: Clostridioides difficile, read-out: Sensitivity of C. difficile (MIC). It is filed as cell-based.
The test system of data set [6] is Reduced-sensitivity strain to Vancomycin C. difficile LCN 0012. The data set is described as follows: MIC by broth dilution method (CLSI M11-A7). Format: cell-based. The note with it: Clostridioides difficile.
In another data set the test system is C. difficile ATCC 9689. Nature of the data set: MIC by broth dilution method (CLSI M11-A7). It is filed as cell-based. The note with it: Clostridioides difficile, ATCC9689, read-out: Sensitivity of C. difficile (MIC).

Consider `C=C(NC(=O)c1csc(-c2nc3c(cc2O)-c2nc(cs2)C(=O)N[C@@H]([C@@H](C)O)C(=O)N/C(=C(\C)OC)c2nc(cs2)C(=O)N[C@@H]2c4nc(cs4)C(=O)N[C@@H](COC(=O)c4c5c6c(cccc6n4O)COC(=O)[C@@H](OC4C[C@](C)(O)[C@H](N(C)C)[C@H](C)O4)C2OC5)c2nc-3cs2)n1)C(N)=O` (stereo partly shown) [Thiopeptcin], for which the MIC in data set [1] was 0.005 to 0.01 µg/mL (≈ 0.00348 to 0.00696 µM); in data set [2] it was 0.025 µg/mL (≈ 0.0174 µM); in data set [4], 0.025 µg/mL (≈ 0.0174 µM); in data set [5], 0.005 µg/mL (≈ 0.00348 µM); in data set [6], 0.025 to 0.05 µg/mL (≈ 0.0174 to 0.0348 µM); in the data set with C. difficile ATCC 9689, 0.005 µg/mL (≈ 0.00348 µM). In data set [3], the “plasma concentration of thiopeptcin (below limit of quantification)” value is given as < 1 ng/mL.
Turning to `CN[C@H](CC(C)C)C(=O)N[C@H]1C(=O)N[C@@H](CC(N)=O)C(=O)N[C@H]2C(=O)N[C@H]3C(=O)N[C@H](C(=O)N[C@H](C(=O)O)c4cc(O)cc(O)c4-c4cc3ccc4O)[C@H](O)c3ccc(c(Cl)c3)Oc3cc2cc(c3O[C@@H]2O[C@H](CO)[C@@H](O)[C@H](O)[C@H]2O[C@H]2C[C@](C)(N)[C@H](O)[C@H](C)O2)Oc2ccc(cc2Cl)[C@H]1O` [Vancomycin, reference compound], the MIC in data set [1] is 0.8 to 3 µg/mL (≈ 0.552 to 2.07 µM); in data set [2] it was 0.5 µg/mL (≈ 0.345 µM); in data set [4], 1.5 µg/mL (≈ 1.04 µM); in data set [5], 1.5 µg/mL (≈ 1.04 µM); in data set [6] it was 4 to 8 µg/mL (≈ 2.76 to 5.52 µM); in the data set on C. difficile ATCC 9689 it was 0.25 µg/mL (≈ 0.173 µM).
